pIC50: −log10 of the molar value. Non-standard residues stand in square brackets, D forms with d. Residues, ends and D or L forms follow the SMILES beside them. *: point of attachment. Sta = CC(C)C[C@H](N)[C@@H](O)CC(=O)O; Isovaleryl = CC(C)CC(=O)*
Tests used:
human renin = biological target: T1, human renin (Homo sapiens, UniProt P00797); experiment: Human Renin Inhibition in vitro (angiotensin I produced, by radioimmunoassay); type: biochemical; settings: pH 7.4, 37° C., two hours, human plasma
T1 construct: purchased National Institute for Biological Standards, London
T1 sequence (P00797 67-406): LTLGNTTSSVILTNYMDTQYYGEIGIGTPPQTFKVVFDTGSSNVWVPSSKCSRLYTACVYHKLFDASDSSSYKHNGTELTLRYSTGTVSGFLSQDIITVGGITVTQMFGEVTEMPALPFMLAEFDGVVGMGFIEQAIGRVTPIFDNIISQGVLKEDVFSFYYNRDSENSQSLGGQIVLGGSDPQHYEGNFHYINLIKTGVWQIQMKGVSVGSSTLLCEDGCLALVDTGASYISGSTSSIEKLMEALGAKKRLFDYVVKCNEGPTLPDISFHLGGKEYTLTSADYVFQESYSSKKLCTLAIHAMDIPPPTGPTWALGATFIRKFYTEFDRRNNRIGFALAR
Protocol: Compounds of Formula I were evaluated as inhibitors of human renin in an in vitro assay, as follows: This human renin inhibition test has been previously described in detail [Papaioannou et al., Clinical and Experimental Hypertension, A7(9), 1243-1257 (1985)]. Human renin was obtained from the National Institute for Biological Standards, London. An incubation mixture was prepared containing the following components: in a total volume of 0.25 mL: 100 mM Tris-acetate buffer at pH 7.4, 25×10^-6 Goldblatt units of renin, 0.05 mL of plasma from human volunteers taking oral contraceptives, 6.0 mM Na-EDTA, 2.4 mM phenylmethyl sulfonyl fluoride, 1.5 mM 8-hydroxyquinoline, 0.4 mg/mL bovine serum albumin (BSA), and 0.024 mg/mL neomycin sulfate. This mixture was incubated for two hours at 37° C. in the presence or absence of renin inhibitors. The produced angiotensin I was determined by radioimmunoassay (New England Nuclear kit). Test compounds to be assayed were dissolved in DMSO and diluted with 100mM Tris-acetate buffer at pH 7.4 containing 0.5% BSA to the appropriate concentration. The final concentration of organic solvent in the reaction mixture was less than 1%. Control incubations at 37° C. were used to correct for effects of organic solvent on renin activity.

hog renin = settings: after the injection of hog renin into nephrectomized rats; cited from earlier work
pepsin = settings: cited from earlier work
cathepsin D = settings: cited from earlier work
renin = settings: cited from earlier work

## C#CC[C@H](NC(=O)[C@@H](CC(=O)N(C)CCc1ccccn1)Cc1ccccc1)C(=O)N[C@@H](CC1CCCCC1)[C@@H](O)[C@@H](O)CC(C)C (relative stereo) [Example 1, N^1-[1R*-[[[1S, 1R*- (cyclohexylmethyl)-2S*, 3R*-dihydroxy-5-methylhexyl]amino]carbonyl]-3-butynyl]-N^4-methyl-2S*-(phenylmethyl)-N^4-[2-(2-pyridinyl)ethyl]butanediamide]
Human renin
  pIC50: 9.82

## CC(C)CC(=O)N[C@H](C(=O)N[C@H](C(=O)N[C@@H](CC(C)C)[C@@H](O)CC(=O)N[C@@H](C)C(=O)N[C@@H](CC(C)C)[C@@H](O)CC(=O)O)C(C)C)C(C)C [pepstatin] (Isovaleryl-VV[Sta]A[Sta]-OH)
Hog renin
  reduce blood pressure in vivo: reduce blood pressure in vivo
pepsin
  inhibitor of pepsin: inhibitor
Cathepsin D
  inhibitor of cathepsin D: inhibitor
renin
  inhibitor of renin: inhibitor

Source: US5563154A, “Tetrahydro-quinolinyl/isoquinolinyl-terminal alkylamino ethynyl alanine amino diol compounds for treatment of hypertension” (G. D. Searle & Co., priority 1995, dated 1996)
